# Source: patent US20250002470A1, “NITROGEN-CONTAINING COMPOUND, PREPARATION METHOD THEREFOR AND APPLICATION THEREOF” (ZHEJIANG AIXPLORER BIOTECH CO., LTD., priority 2021, published 2025)
# Biological target: T1, NLRP3 (Homo sapiens, UniProt Q96P20)
# T1 construct: endogenous in cells; host or cells: THP-1 cells (IFN-γ differentiated, LPS primed, ATP stimulated)
# Test: IL-1β (interleukin-1β) secretion in IFN-γ-differentiated, LPS/ATP-stimulated THP-1 cells (half inhibition rate of NLRP3)
# Format: cell-based
# Conditions: IFN-γ 25 ng/mL, LPS 50 ng/mL, ATP 5 mM
# Experimental: Remove THP-1 cells from liquid nitrogen and place in a 37° C. water bath until ice melt. Add the cells to 5 mL of warm cell culture medium and centrifuge at 1,000 rpm for 5 min. Discard the supernatant and resuspend and culture in a new cell culture medium.
# THP-1 cells are cultured in the culture medium and passaged every 2-3 days.
# 2.1.1 Add 100 μL of cell suspension per well to the cell plate and incubate the cell plate in a 37° C., 5% CO2 incubator for 24 hours.
# 2.2.1 Discard the supernatant of IFN-γ differentiation after differentiation treatment. Add 100 μL of serum-free medium containing LPS (final concentration of 50 ng/mL) to the cell plate. The cell plates were incubated in a 37° C., 5% CO2 incubator for 4 h.
# Place the cell plate in an incubator at 37° C. and 5% CO2 for 1 hour.
# 2.2.3 Add 20 μL of 6×ATP per well according to the plate map (final concentration 5 mM) and incubate the cell plate in a 37° C., 5% CO2 incubator for 1 h. Collect the supernatant (60 μL) and store at −20° C.
# The capture antibody mAb Mt175 is diluted to 2 μg/mL with PBS (1:250) and added to the cell plate at 15 μL per well. Keep the plate overnight at 4° C.
# 2.4.1 Discard the coated antibody and wash 4 times with PBST.
# 2.4.3 Discard the blocking buffer and wash 4 times with PBST.
# 2.4.4 Add 25 μL of 2.2.3 collected supernatant sample per well and incubate for 2 h at room temperature.
# 2.4.5 Discard the samples and wash 4 times with PBST.
# 2.4.6 Add mAb7P10-biotin (concentration 0.5 ug/mL) to blocking buffer, add 15 μL per well to the cell plate, and incubate for 1 hour at room temperature.
# 2.4.7 Discard the antibody and wash 4 times with PBST.
# 2.4.8 Streptavidin-HRP was diluted 1:1000 in blocking buffer, 15 μL per well was added to the cell plate, and incubated for 1 hour at room temperature.
# 2.4.9 Discard streptavidin-HRP and wash 4 times with PBST.
# 2.4.10 Add 25 μL of HRP substrate (Surmodics-TMBW-0100-01) per well and incubate the cell plate until a blue product appears.
# 2.4.11 Add 25 μL of stop solution (Surmodics-LSTP-0100-01) per well, and the blue product turns yellow.
# 2.4.12 Read the cell plate at 450 nm with a microplate reader.
# T1 sequence (Q96P20 whole entry): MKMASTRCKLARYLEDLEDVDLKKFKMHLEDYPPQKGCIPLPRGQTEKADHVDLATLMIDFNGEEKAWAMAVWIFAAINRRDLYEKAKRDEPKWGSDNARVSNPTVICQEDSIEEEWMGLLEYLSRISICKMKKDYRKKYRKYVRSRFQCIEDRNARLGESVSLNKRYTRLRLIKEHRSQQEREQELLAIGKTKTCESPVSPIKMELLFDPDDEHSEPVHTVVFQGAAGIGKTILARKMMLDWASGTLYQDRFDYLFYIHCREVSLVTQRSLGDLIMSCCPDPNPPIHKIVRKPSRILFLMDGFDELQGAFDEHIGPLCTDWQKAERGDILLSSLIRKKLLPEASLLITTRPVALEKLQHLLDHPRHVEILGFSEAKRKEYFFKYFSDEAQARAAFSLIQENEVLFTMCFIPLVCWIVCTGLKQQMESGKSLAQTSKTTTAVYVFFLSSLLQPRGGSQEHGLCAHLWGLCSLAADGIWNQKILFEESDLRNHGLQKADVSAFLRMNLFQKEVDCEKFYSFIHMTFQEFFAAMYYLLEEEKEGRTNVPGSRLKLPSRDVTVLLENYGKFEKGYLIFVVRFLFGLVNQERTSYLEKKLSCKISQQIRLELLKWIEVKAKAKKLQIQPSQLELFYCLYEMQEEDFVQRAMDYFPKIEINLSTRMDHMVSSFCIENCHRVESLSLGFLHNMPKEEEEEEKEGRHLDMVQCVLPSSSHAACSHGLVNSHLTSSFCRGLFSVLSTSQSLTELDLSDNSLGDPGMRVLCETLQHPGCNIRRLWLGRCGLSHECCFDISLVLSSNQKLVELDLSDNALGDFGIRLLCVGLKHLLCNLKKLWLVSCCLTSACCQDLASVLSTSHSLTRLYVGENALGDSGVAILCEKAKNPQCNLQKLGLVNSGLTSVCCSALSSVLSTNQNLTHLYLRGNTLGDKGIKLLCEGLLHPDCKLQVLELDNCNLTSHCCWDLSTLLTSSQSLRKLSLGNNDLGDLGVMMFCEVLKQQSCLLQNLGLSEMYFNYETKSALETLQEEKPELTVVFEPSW
row,SMILES,IC50
1,CN1CCC[C@@H](Nc2nnc(-c3ccc(C(F)(F)F)cc3O)c3ccc(F)cc23)C1 [Embodiment 120],4.1 nM
2,Oc1cc(C(F)(F)F)ccc1-c1nnc(N[C@@H]2CCCC[C@H]2O)c2cccnc12 [Embodiment 71],92.8 nM
3,"Cc1nc(N[C@@H]2CCCN(CC(N)=O)C2)nnc1-c1ccc(C(F)(F)F)cc1O [Embodiment 42, (R)-2-(3-((6-(2-hydroxy-4-(trifluoromethyl)phenyl)-5-methyl-1,2,4-triazin-3-yl)amino)piperidin-1-yl) acetamide]",62.7 nM
4,Cc1cc(Cl)cc(O)c1-c1nnc(N[C@@H]2CCCN(C)C2)c2ccccc12 [Embodiment 29],5.1 nM
5,CN1CCC[C@@H](Nc2nnc(-c3ccc(C(F)(F)F)cc3O)c3c2ccn3C)C1 [Embodiment 114],31 nM
6,CN1CCC[C@@H](Nc2nnc(-c3ccc(Cl)cc3O)c3ccncc23)C1 [Embodiment 128],3 nM
7,"Cc1cc(C(F)(F)F)cc(O)c1-c1cnc(N[C@@H]2CCCN(C)C2)nn1 [Embodiment 10, (R)-3-methyl-2-(3-((1-methylpiperidin-3-yl)amino)-1,2,4-triazin-6-yl)-5-(trifluoromethyl)phenol]",15.5 nM
8,CN1CCC[C@@H](Nc2nnc(-c3ccc(C(F)(F)F)cc3O)c3ccn(C)c23)C1 [Embodiment 113],16.1 nM
9,Oc1cc(C(F)(F)F)cc(F)c1-c1nnc(N[C@@H]2CCCC[C@H]2O)c2ncccc12 [Embodiment 140],9.5 nM
10,CN1CCC[C@@H](Nc2nnc(-c3ccc(C(F)(F)F)cc3O)c3cccc(F)c23)C1 [Embodiment 119],5 nM
11,"Cc1cc(C)c(-c2cnc(N[C@@H]3CCCN(CC(=O)N[C@@H](C)CO)C3)nn2)c(O)c1 [Embodiment 24, 2-((R)-3-((6-(2-hydroxy-4,6-dimethylphenyl)-1,2,4-triazin-3-yl)amino)piperidin-1-yl)-N—((S)-1-hydroxypropyl-2-yl)acetamide]",193 nM
12,CN1CCC[C@@H](Nc2nnc(-c3ccc(C(F)(F)F)cc3O)c3[nH]ccc23)C1 [Embodiment 21],49.4 nM
13,"Cc1cc(Cl)cc(O)c1-c1cnc(N[C@@H]2CCCN(C)C2)nn1 [Embodiment 11, (R)-5-chloro-3-methyl-2-(3-((1-methylpiperidin-3-yl)amino)-1,2,4-triazin-6-yl)phenol]",4 nM
14,CN1CCC[C@@H](Nc2nnc(-c3ccc(Cl)cc3O)c3cnccc23)C1 [Embodiment 129],3.8 nM
15,Cc1nc(N[C@@H]2CCCN(C3CC3)C2)nnc1-c1ccc(C(F)(F)F)cc1O [Embodiment 141],1.5 nM
16,CN1CCC[C@@H](Nc2ncc(-c3c(O)cc(C(F)(F)F)cc3Cl)nn2)C1 [Embodiment 107],29.2 nM
17,"Cc1nc(N[C@@H]2CCCN(C)C2)nnc1-c1ccc(Cl)cc1O [Embodiment 7, (R)-5-Chloro-2-(5-methyl-3-((1-methylpiperidin-3-yl)amino)-1,2,4-triazin-6-yl)phenol]",1.2 nM
18,"Cc1cc(C)c(-c2cnc(N[C@@H]3CCCN(CC(=O)O)C3)nn2)c(O)c1 [Embodiment 3, (R)-2-(3-((6-(2-hydroxy-4,6-dimethylphenyl)-1,2,4-triazin-3-yl)amino)piperidin-1-yl)acetic acid]",53.5 nM
19,"Cc1cc(C)c(-c2cnc(N[C@@H]3CCCN(CC(N)=O)C3)nn2)c(O)c1 [Embodiment 23, (R)-2-(3-((6-(2-hydroxy-4,6-dimethylphenyl)-1,2,4-triazin-3-yl)amino)piperidin-1-yl)acetamide]",376 nM

row,SMILES,IC50
1,"Cc1cc(C)c(-c2nnc(N[C@@H]3CCCN(C)C3)nn2)c(O)c1 [Embodiment 26, (R)-3,5-Dimethyl-2-(6-((1-methylpiperidin-3)amino)-1,2,4,5-tetraazin-3)phenol]",446 nM
2,"Cc1nc(N[C@@H]2CCC[C@@H](O)C2)nnc1-c1ccc(C(F)(F)F)cc1O [Embodiment 36, 2-(3-(((1R,3R)-3-hydroxycyclohexyl)amino)-5-methyl-1,2,4-triazin-6-yl)-5-(trifluoromethyl)phenol]",54.2 nM
3,Cc1cc(C)c(-c2cnc(N[C@@H]3CCCN(CC(=O)N[C@H]4C[C@@](C)(O)C4)C3)nn2)c(O)c1 [Embodiment 25],317 nM
4,"CN1CCC[C@@H](Nc2nnc(-c3ccc(Cl)cc3O)c3ccccc23)C1 [Embodiment 28, (R)-5-chloro-2-(4-((1-methylpiperidin-3-yl)amino)phthalazin-1-yl)phenol]",1.1 nM
5,"CN1CCC[C@@H](Nc2nnc(-c3ccc(C(F)(F)F)cc3O)c3c2CCO3)C1 [Embodiment 19, (R)-2-(4-((1-methylpiperidin-3-yl)amino)-2,3-dihydrofuro[2,3-d]pyridazin-7-yl)-5-(trifluoromethyl)phenol]",85.2 nM
6,"Cc1cc(C)c(-c2cnc(NC3CCCN4CCCC34)nn2)c(O)c1 [Embodiment 4, (R)-3,5-dimethyl-2-(9-((1,2,3,5,6,7,8,8a-octahydroindozine-9-yl)amino)-1,2,4-triazin-6-yl)phenol]",32.1 nM
7,CN1CCC[C@@H](Nc2nnc(-c3ccc(C(F)(F)F)cc3O)c3cocc23)C1 [Embodiment 109],40.6 nM
8,Cc1nc(N[C@@H]2CCCN(CC3(O)CC3)C2)nnc1-c1ccc(C(F)(F)F)cc1O [Embodiment 134],14 nM
9,"Oc1cc(C(F)(F)F)ccc1-c1nnc(N[C@@H]2CCCC[C@H]2O)c2c1CCC2 [Embodiment 81, 2-(4-(((1R,2R)-2-hydroxycyclohexyl)amino)-6,7-dihydro-5H-cyclopenta[d]pyridazin-1-yl)-5-(trifluoromethyl)phenol]",34.8 nM
10,Cc1cc(Cl)cc(O)c1-c1nnc(N[C@@H]2CCCN(C)C2)c2ccccc12 [Embodiment 116],10.6 nM
11,Cc1nc(N[C@@H]2CCCN(C3CCC3)C2)nnc1-c1ccc(C(F)(F)F)cc1O [Embodiment 142],11.3 nM
12,C[C@]1(O)C[C@@H](Nc2nnc(-c3ccc(C(F)(F)F)cc3O)c3ccccc23)C1 [Embodiment 65],10.4 nM
13,"C[C@]1(O)C[C@@H](Nc2nnc(-c3ccc(C(F)(F)F)cc3O)c3c2CCC3)C1 [Embodiment 82, 2-(4-(((cis)-3-hydroxy-3-methylcyclobutyl)amino)-6,7-dihydro-5H-cyclopenta[d]pyridazin-1-yl)-5-(trifluoromethyl)phenol]",47.4 nM
14,CN1CCC[C@@H](Nc2nnc(-c3ccc(C(F)(F)F)cc3O)c3cc(F)ccc23)C1 [Embodiment 121],1.2 nM
15,"CN1CCC[C@@H](Nc2nnc(-c3ccc(C(F)(F)F)cc3O)c3cnccc23)C1 [Embodiment 30, (R)-2-(1-((1-methylpiperidin-3-yl)amino)pyrido[3,4-d]pyridazin-4-yl)-5-(trifluoromethyl)phenol]",2.9 nM
16,"Cc1cc(N[C@@H]2CCCN(C)C2)nnc1-c1ncc(C(F)(F)F)cc1O [Embodiment 12, (R)-2-(4-methyl-6-((1-methylpiperidin-3-yl)amino)pyridazin-3-yl)-5-(trifluoromethyl)pyridin-3-ol]",31.1 nM
17,Cc1cc(C)c(-c2cnc(N[C@@H]3CCCN(C)C3)nn2)c(O)c1 [Embodiment 108],10.9 nM
18,CN1CCC[C@@H](Nc2nnc(-c3ccc(C(F)(F)F)cc3O)c3cc[nH]c23)C1 [Embodiment 20],21.3 nM
19,"Cc1nc(N[C@@H]2CCCN(C)C2)nnc1-c1ncc(C(F)(F)F)cc1O [Embodiment 9, (R)-2-(5-methyl-3-((1-methylpiperidin-3-yl)amino)-1,2,4-triazin-6-yl)-5-(trifluoromethyl)pyridin-3-ol]",67 nM
